{
  "source": "patent US20150079071A1",
  "about": "“NON-CATALYTIC DOMAIN TARGETS IN MATRIX METALLOPROTEASE PROTEINS FOR CANCER THERAPIES” (THE REGENTS OF THE UNIVERSITY OF CALIFORNIA, priority 2012, published 2015)",
  "format_in_all_cases": "cell-based, mouse",
  "key": {"[1]": {"tested_on": "primary mammary organoids and EpH4 cells", "test": "Branching morphogenesis (invasion/branching) assay in collagen-1 gels", "conditions": "9 nM FGF2, inhibitors 40 μM; for invasion/branching in sparse CL-1 gels: sparse CL-1 1 mg/ml", "procedure": "Single cells were removed by centrifugation and the clusters were then washed three times with DMEM/F12. Cell clusters and primary organoids were embedded in collagen-1 gels. Briefly, acid-extracted type I collagen (Koken, Tokyo, Japan) was mixed gently on ice (8 vol) with 1 vol of 10×DMEM/F12, then pH is adjusted to 7.4 with 0.1N NaOH. Collagen solution was added into each well of a 48-well plate, which was then incubated at 37° C. to allow gelation. EpH4 cell clusters or primary organoids were suspended in collagen at 3 mg/ml or 1 mg/ml, poured onto the basal collagen layer and placed at 37° C. for gelation. After gelation of the collagen, growth medium containing 9 nM FGF2 was added to the wells. Branching morphogenesis was assessed using a Nikon Diaphot 300 microscope and clusters were scored as positive when displaying three or more branches of length at least half the diameter of the central cell cluster."}, "Erk": {"tested_on": "Erk", "test": "Immunoblot of phospho-Erk / total Erk (MAPK activity)", "conditions": "EpH4 cells in CL-1 gels", "description": "Samples were lysed using modified RIPA buffer (50 mM HEPES pH 7.4, 150 mM NaCl, 10% glycerol, 1% Triton X-100, 10 mM sodium pyrophosphate containing 1.5 mM MgCl2, 1 mM EGTA, 1% sodium deoxycholate, 0.25 mM Na3VO4, 100 mM NaF and proteinase inhibitor cocktail (EMD Millipore, Billerica, USA)). Protein concentration was determined using the BCA Protein Assay kit (Thermo Scientific, Waltham, USA), following the manufacturer's instructions. Protein samples (10 μg) were mixed with Laemmeli sample buffer and heated at 95° C. for 5 minutes. Samples were loaded into a pre-cast 4-20% tris-glycine polyacrylamide gel (Invitrogen) using the NOVEX system (Invitrogen). Resolved proteins were transferred to nitrocellulose membrane (Whatman, Maidstone, UK) followed by blocking in PBS, 0.05% Tween-20 with 5% w/v non-fat dry milk for 1 hour at room temperature (RT). Membranes were incubated overnight at 4° C. in 5% BSA, 0.1% Tween-20 in PBS containing antibodies that recognize either phosphorylated Erk1/2, total Erk1/2 (Cell Signaling). […] Primary antibodies were detected with HRP conjugated anti-IgG (Thermo) and the Pierce SuperSignal detection kit. Chemiluminescence ignal was captured with a FluorChem 8900 analysis system (Alpha Innotech, San Leandro, USA)."}, "SCp2 cells": {"tested_on": "SCp2 cells", "test": "Invasion assay in Boyden chambers", "conditions": "for invasion of FL and EA-SCp2 cells: SCp2 overexpressing MMP3 constructs containing the hemopexin domain; for invasion of dPEX-SCp2 or control cells: SCp2 with hemopexin-deleted MMP3 or control vector", "procedure": "Cell culture inserts (8 μm, 24-well format; BD Biosciences) were evenly coated with 20 μL of diluted (1:5 in DMEM/F-12 medium) Matrigel (BD Biosciences). Cells (1×10^5) in 200 μL of DMEM/F-12 medium or different CM (as indicated in each experiment) were added to the upper compartment of the chamber. The lower compartment of the chamber was filled with 300 μL of medium containing 10% FBS as a chemoattractant. After 48 h of incubation at 37° C., the top side of the insert was cleared from noninvasive cells with a cotton swab and washed with serum-free DMEM/F-12. The remaining (invasive) cells at the lower surface of the filter were fixed and stained with a solution of Coomassie Blue 0.125% in methanol:acetic acid:H2O (45%:10%:45% [v/v/v]) for 15 min. Invasive cells were scored by counting 10×20 magnification fields per filter with a Zeiss Imager Z1 microscope using a 20× objective. Mouse embryonic fibroblast NIH/3T3 cells were routinely included as a positive control. Results are expressed as mean±SD from three independent experiments."}, "[2]": {"tested_on": "primary mammary organoids", "test": "Branching morphogenesis assay of primary mammary organoids in 3D Col-1 gels", "procedure": "Primary organoids or clustered EpH4 cells were embedded in 3D Col-1 gels as previously published (Simian et al. 2001; Mori et al. 2013). In brief, acid-solubilized Col-1 solution was mixed gently on ice with 1 vol of 10×DMEM/F-12 (pH adjusted to 7.4 with 0.1 M NaOH), and the concentration was adjusted to 3 mg/mL with DMEM/F-12. A basal layer of 80 μL of Col-1 was poured into each well of an eight-well chambered coverglass (155409, Thermo Scientific) and allowed to gel for 5 min at 37° C. A second layer of 200 μL of Col-1 containing 150 organoids or EpH4 clusters was added to each well and placed immediately at 37° C. After gelation, 400 μL of chemically defined medium (DMEM/F-12 containing 1% insulin/transferrin/selenium, 1% penicilin/streptomycin) with 9 nM TGFα (Sigma) or 9 nM bFGF (Sigma) was added to each well (unless stated otherwise) and replaced every other day.\nAfter 3 d of culture, gels were fixed with 4% formalin for 30 min and stained with phalloidin and DAPI for 1 h. Structures were imaged with an upright Zeiss LSM710 using a 0.8 NA 20× air objective. […] The number of extending processes and their average length were determined using the Imaris program (Bitplane). […] Fifty structures were counted per condition, and the experiments were executed at least three times."}, "Mmp14 and Itgb1": {"tested_on": "Mmp14 and Itgb1", "test": "Immunoblot of Mmp14 and Itgb1 levels in EpH4 cells", "procedure": "Samples were lysed using modified RIPA buffer (50 mM HEPES pH 7.4, 150 mM NaCl, 10% glycerol, 1% Triton X-100, 10 mM sodium pyrophosphate containing 1.5 mM MgCl2, 1 mM EGTA, 1% sodium deoxycholate, 0.25 mM Na3VO4, 100 mM NaF and proteinase inhibitor cocktail (EMD Millipore, Billerica, USA)). Protein concentration was determined using the BCA Protein Assay kit (Thermo Scientific, Waltham, USA), following the manufacturer's instructions. Protein samples (10 μg) were mixed with Laemmeli sample buffer and heated at 95° C. for 5 minutes. Samples were loaded into a pre-cast 4-20% tris-glycine polyacrylamide gel (Invitrogen) using the NOVEX system (Invitrogen). Resolved proteins were transferred to nitrocellulose membrane (Whatman, Maidstone, UK) followed by blocking in PBS, 0.05% Tween-20 with 5% w/v non-fat dry milk for 1 hour at room temperature (RT). Membranes were incubated overnight at 4° C. in 5% BSA, 0.1% Tween-20 in PBS containing antibodies that recognize either phosphorylated Erk1/2, total Erk1/2 (Cell Signaling). Anti-Mmp14 (Abcam, Cambridge, USA), anti-Itgb1 (Santa Cruz Biotechnology, Santa Cruz, USA), anti-Itgb1 p788/789 (Abcam), anti-LAM A/C (Santa Cruz Biotechnology), anti-Actin (Abcam), anti-FLAG (Sigma) and rabbit IgG (Sigma) antibodies were used for immunoblotting. Primary antibodies were detected with HRP conjugated anti-IgG (Thermo) and the Pierce SuperSignal detection kit. Chemiluminescence ignal was captured with a FluorChem 8900 analysis system (Alpha Innotech, San Leandro, USA)."}},
  "note": "Read-outs that look alike come from different tables or passages of the source.",
  "data": [
    {"compound": "CNC(=O)[C@H](Cc1c[nH]c2ccccc12)NC(=O)[C@@H](CC(=O)NO)CC(C)C", "note": "[GM6001]", "values": [
      {"measurement": "invasion/branching in dense CL-1 gels", "setting": "[1]; dense CL-1 3 mg/ml", "result": "completely abrogated"},
      {"measurement": "invasion/branching in sparse CL-1 gels", "setting": "[1]", "result": "still invaded"},
      {"measurement": "MAPK activation (pErk/total Erk)", "setting": "Erk", "result": "did not change"}
    ]},
    {"compound": "recombinant HSP90β: recombinant HSP90β protein purchased from Calbiochem/EMD Millipore", "values": [
      {"measurement": "invasion of FL and EA-SCp2 cells", "setting": "SCp2 cells", "result": "enhanced invasion significantly"},
      {"measurement": "invasion of dPEX-SCp2 or control cells", "setting": "SCp2 cells", "result": "did not raise the invasive potential"},
      {"measurement": "invasion and branching of mammary organoids", "setting": "[2]; 3 mg/mL Col-1, 3 d, TGFα", "result": "most exuberant branched structures"},
      {"measurement": "spatial network per organoid", "setting": "[2]; organoids overexpressing FL MMP3, 3 mg/mL Col-1, 3 d", "result": "longest spatial network observed so far"}
    ]},
    {"compound": "CCc1cc(-c2n[nH]c(C)c2-c2ccc3c(c2)OCCO3)c(O)cc1O", "note": "[CCT018159]", "values": [
      {"measurement": "invasion of FL and EA-SCp2 cells", "setting": "SCp2 cells", "result": "reduced invasion"},
      {"measurement": "invasion of dPEX-SCp2 or control cells", "setting": "SCp2 cells", "result": "no significant effect"}
    ]},
    {"compound": "COc1cccc(-c2cc(=O)c3ccccc3o2)c1N", "note": "[PD98059]", "values": [
      {"measurement": "invasion/branching in sparse CL-1 gels", "setting": "[1]", "result": "reduced invasion/branching"},
      {"measurement": "Itgb1 level", "setting": "Mmp14 and Itgb1", "result": "reduced"},
      {"measurement": "Mmp14 level", "setting": "Mmp14 and Itgb1", "result": "reduced"},
      {"measurement": "Itgb1 level", "setting": "Mmp14 and Itgb1; listed as PD95089", "result": "reduced expression"},
      {"measurement": "Mmp14 level", "setting": "Mmp14 and Itgb1; listed as PD95089", "result": "reduced expression"}
    ]}
  ]
}
